A value given as a limit tells only on which side of the number the result lay.

One may read the EC50 as the concentration giving half of the maximal effect.

This assay deals with recombinant NL4-3 virus (Renilla luciferase in nef, Gag P373S). Briefly: HIV cell culture assay (luciferase activity in MT-2 cells infected with NLRluc recombinant virus). It is filed as cell-based. The conditions noted are these: NL43, MT-2 cells infected 4-5 days with NLRluc recombinant virus, class symbol. The essentials: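 Activity was read as luciferase output (Dual Luciferase reagents premixed with lysis solution) after 4–5 days of infection in serially diluted inhibitor. Host cells were MT-2 in 10% FBS RPMI. The reporter virus came from transfected 293T cells and was titered on MT-2.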
For the molecule `C=C(C)[C@@H]1CC[C@]2(CNCCC(=O)NC)CC[C@]3(C)[C@H](CC[C@@H]4[C@@]5(C)CC=C(c6ccc(C(=O)O)cc6)C(C)(C)[C@@H]5CC[C@]43C)[C@@H]12` [Example 127, 4-((1R,3aS,5aR,5bR,7aR,11aS,11bR,13aR,13bR)-5a,5b,8,8,11a-pentamethyl-3a-((3-(methylamino)-3-oxopropylamino)methyl)-1-(prop-1-en-2-yl)-2,3,3a,4,5,5a,5b,6,7,7a,8,11,11a,11b,12,13,13a,13b-octadecahydro-1H-cyclopenta[a]chrysen-9-yl)benzoic acid], the EC50 is under 100 nM.
Take `C=C(C)[C@@H]1CC[C@]2(CNCCC(=O)N3CCC(=O)CC3)CC[C@]3(C)[C@H](CC[C@@H]4[C@@]5(C)CC=C(c6ccc(C(=O)O)cc6)C(C)(C)[C@@H]5CC[C@]43C)[C@@H]12` [Example 128, 4-((1R,3aS,5aR,5bR,7aR,11aS,11bR,13aR,13bR)-5a,5b,8,8,11a-pentamethyl-3a-((3-oxo-3-(4-oxopiperidin-1-yl)propylamino)methyl)-1-(prop-1-en-2-yl)-2,3,3a,4,5,5a,5b,6,7,7a,8,11,11a,11b,12,13,13a,13b-octadecahydro-1H-cyclopenta[a]chrysen-9-yl)benzoic acid]: the EC50 was under 100 nM.
`C=C(C)[C@@H]1CC[C@]2(CNCCC(=O)NC(C)(CO)CO)CC[C@]3(C)[C@H](CC[C@@H]4[C@@]5(C)CC=C(c6ccc(C(=O)O)cc6)C(C)(C)[C@@H]5CC[C@]43C)[C@@H]12` [Example 129, 4-((1R,3aS,5aR,5bR,7aR,11aS,11bR,13aR,13bR)-3a-((3-(1,3-dihydroxy-2-methylpropan-2-ylamino)-3-oxopropylamino)methyl)-5a,5b,8,8,11a-pentamethyl-1-(prop-1-en-2-yl)-2,3,3a,4,5,5a,5b,6,7,7a,8,11,11a,11b,12,13,13a,13b-octadecahydro-1H-cyclopenta[a]chrysen-9-yl)benzoic acid]: the half-maximal effective concentration (EC50) was under 100 nM.
For the molecule `C=C(C)[C@@H]1CC[C@]2(CNCC(=O)N3CCCCC3)CC[C@]3(C)[C@H](CC[C@@H]4[C@@]5(C)CC=C(c6ccc(C(=O)O)cc6)C(C)(C)[C@@H]5CC[C@]43C)[C@@H]12` [Example 130, 4-((1R,3aS,5aR,5bR,7aR,11aS,11bR,13aR,13bR)-5a,5b,8,8,11a-pentamethyl-3a-((2-oxo-2-(piperidin-1-yl)ethylamino)methyl)-1-(prop-1-en-2-yl)-2,3,3a,4,5,5a,5b,6,7,7a,8,11,11a,11b,12,13,13a,13b-octadecahydro-1H-cyclopenta[a]chrysen-9-yl)benzoic acid], the 50% effective concentration (EC50) is under 100 nM.
Take `C=C(C)[C@@H]1CC[C@]2(CNC(CC(=O)O)C(=O)N3CCC(F)(F)C3)CC[C@]3(C)[C@H](CC[C@@H]4[C@@]5(C)CC=C(c6ccc(C(=O)O)cc6)C(C)(C)[C@@H]5CC[C@]43C)[C@@H]12` (stereo partly drawn) [Example 131, 4-((1R,3aS,5aR,5bR,7aR,11aS,11bR,13aR,13bR)-3a-((3-carboxy-1-(3,3-difluoropyrrolidin-1-yl)-1-oxopropan-2-ylamino)methyl)-5a,5b,8,8,11a-pentamethyl-1-(prop-1-en-2-yl)-2,3,3a,4,5,5a,5b,6,7,7a,8,11,11a,11b,12,13,13a,13b-octadecahydro-1H-cyclopenta[a]chrysen-9-yl)benzoic acid]: the EC50 is under 100 nM.
Turning to `C=C(C)[C@@H]1CC[C@]2(CN[C@@H](CC(=O)O)C(=O)N3CCS(=O)(=O)CC3)CC[C@]3(C)[C@H](CC[C@@H]4[C@@]5(C)CC=C(c6ccc(C(=O)O)cc6)C(C)(C)[C@@H]5CC[C@]43C)[C@@H]12` [Example 132, 4-thiomorpholinebutanoic acid, 4-((1R,3aS,5aR,5bR,7aR,11aS,11bR,13aR,13bR)-3a-((((1S)-1-(carboxymethyl)-2-(1,1-dioxido-4-thiomorpholinyl)-2-oxoethyl)amino)methyl)-1-isopropenyl-5a,5b,8,8,11a-pentamethyl-2,3,3a,4,5,5a,5b,6,7,7a,8,11,11a,11b,12,13,13a,13b-octadecahydro-1H-cyclopenta[a]chrysen-9-yl)benzoic acid], the concentration giving a half-maximal response (EC50) is under 100 nM.
On to `C=C(C)[C@@H]1CC[C@]2(CNC(=O)CN3CCCC3=O)CC[C@]3(C)[C@H](CC[C@@H]4[C@@]5(C)CC=C(c6ccc(C(=O)O)cc6)C(C)(C)[C@@H]5CC[C@]43C)[C@@H]12` [Example 133, 4-((1R,3aS,5aR,5bR,7aR,11aS,11bR,13aR,13bR)-5a, 5b,8,8,11a-pentamethyl-3a-((2-(2-oxopyrrolidin-1-yl)acetamido)methyl)-1-(prop-1-en-2-yl)-2,3,3a,4,5,5a,5b,6,7,7a,8,11,11a,11b,12,13,13a,13b-octadecahydro-1H-cyclopenta[a]chrysen-9-yl)benzoic acid], for which the EC50 was under 100 nM.
Take `C=C(C)[C@@H]1CC[C@]2(CNC(=O)C3CC(=O)NC(=O)C3)CC[C@]3(C)[C@H](CC[C@@H]4[C@@]5(C)CC=C(c6ccc(C(=O)O)cc6)C(C)(C)[C@@H]5CC[C@]43C)[C@@H]12` [Example 134, 4-((1R,3aS,5aR,5bR,7aR,11aS,11bR,13aR,13bR)-3a-((2,6-dioxopiperidine-4-carboxamido)methyl)-5a,5b,8,8,11a-pentamethyl-1-(prop-1-en-2-yl)-2,3,3a,4,5,5a,5b,6,7,7a,8,11,11a,11b,12,13,13a,13b-octadecahydro-1H-cyclopenta[a]chrysen-9-yl)benzoic acid]: the half-maximal effective concentration (EC50) was under 100 nM.
Consider `C=C(C)[C@@H]1CC[C@]2(CNC(=O)[C@H](N)CCS(C)(=O)=O)CC[C@]3(C)[C@H](CC[C@@H]4[C@@]5(C)CC=C(c6ccc(C(=O)O)cc6)C(C)(C)[C@@H]5CC[C@]43C)[C@@H]12` [Example 135, 4-((1R,3aS,5aR,5bR,7aR,11aS,11bR,13aR,13bR)-3a-(((R)-2-amino-4-(methylsulfonyl)butanamido)methyl)-5a,5b,8,8,11a-pentamethyl-1-(prop-1-en-2-yl)-2,3,3a,4,5,5a,5b,6,7,7a,8,11,11a,11b,12,13,13a,13b-octadecahydro-1H-cyclopenta[a]chrysen-9-yl)benzoic acid], for which the concentration for a half-maximal effect (EC50) was under 100 nM.
With `C=C(C)[C@@H]1CC[C@]2(CNC(=O)[C@@H]3CCCN3)CC[C@]3(C)[C@H](CC[C@@H]4[C@@]5(C)CC=C(c6ccc(C(=O)O)cc6)C(C)(C)[C@@H]5CC[C@]43C)[C@@H]12` [Example 136, 4-((1R,3aS,5aR,5bR,7aR,11aS,11bR,13aR,13bR)-5a,5b,8,8,11a-pentamethyl-1-(prop-1-en-2-yl)-3a-(((S)-pyrrolidine-2-carboxamido)methyl)-2,3,3a,4,5,5a,5b,6,7,7a,8,11,11a,11b,12,13,13a,13b-octadecahydro-1H-cyclopenta[a]chrysen-9-yl)benzoic acid], the 50% effective concentration (EC50) was under 100 nM.
As for `C=C(C)[C@@H]1CC[C@]2(CNC(=O)[C@H]3CCCN3)CC[C@]3(C)[C@H](CC[C@@H]4[C@@]5(C)CC=C(c6ccc(C(=O)O)cc6)C(C)(C)[C@@H]5CC[C@]43C)[C@@H]12` [Example 137, 4-((1R,3aS,5aR,5bR,7aR,11aS,11bR,13aR,13bR)-5a,5b,8,8,11a-pentamethyl-1-(prop-1-en-2-yl)-3a-(((R)-pyrrolidine-2-carboxamido)methyl)-2,3,3a,4,5,5a,5b,6,7,7a,8,11,11a,11b,12,13,13a,13b-octadecahydro-1H-cyclopenta[a]chrysen-9-yl)benzoic acid], the EC50 is under 100 nM.
Take `C=C(C)[C@@H]1CC[C@]2(CNC(=O)[C@@H]3CCCN3C(C)=O)CC[C@]3(C)[C@H](CC[C@@H]4[C@@]5(C)CC=C(c6ccc(C(=O)O)cc6)C(C)(C)[C@@H]5CC[C@]43C)[C@@H]12` [Example 138, 4-((1R,3aS,5aR,5bR,7aR,11aS,11bR,13aR,13bR)-3a-(((S)-1-acetylpyrrolidine-2-carboxamido)methyl)-5a,5b,8,8,11a-pentamethyl-1-(prop-1-en-2-yl)-2,3,3a,4,5,5a,5b,6,7,7a,8,11,11a,11b,12,13,13a,13b-octadecahydro-1H-cyclopenta[a]chrysen-9-yl)benzoic acid]: the concentration for a half-maximal effect (EC50) was under 100 nM.
The value for `C=C(C)[C@@H]1CC[C@]2(CNC(=O)CNC)CC[C@]3(C)[C@H](CC[C@@H]4[C@@]5(C)CC=C(c6ccc(C(=O)O)cc6)C(C)(C)[C@@H]5CC[C@]43C)[C@@H]12` [Example 139, 4-((1R,3aS,5aR,5bR,7aR,11aS,11bR,13aR,13bR)-5a,5b,8,8,11a-pentamethyl-3a-((2-(methylamino)acetamido)methyl)-1-(prop-1-en-2-yl)-2,3,3a,4,5,5a,5b,6,7,7a,8,11,11a,11b,12,13,13a,13b-octadecahydro-1H-cyclopenta[a]chrysen-9-yl)benzoic acid] was under 100 nM; that for `C=C(C)[C@@H]1CC[C@]2(CNC(=O)[C@@H](N)Cc3c[nH]cn3)CC[C@]3(C)[C@H](CC[C@@H]4[C@@]5(C)CC=C(c6ccc(C(=O)O)cc6)C(C)(C)[C@@H]5CC[C@]43C)[C@@H]12` [Example 140, 4-((1R,3aS,5aR,5bR,7aR,11aS,11bR,13aR,13bR)-3a-(((S)-2-amino-3-(1H-imidazol-4-yl)propanamido)methyl)-5a,5b,8,8,11a-pentamethyl-1-(prop-1-en-2-yl)-2,3,3a,4,5,5a,5b,6,7,7a,8,11,11a,11b,12,13,13a,13b-octadecahydro-1H-cyclopenta[a]chrysen-9-yl)benzoic acid] was under 100 nM.
For the molecule `C=C(C)[C@@H]1CC[C@]2(CNC(=O)CCN3CCNCC3)CC[C@]3(C)[C@H](CC[C@@H]4[C@@]5(C)CC=C(c6ccc(C(=O)O)cc6)C(C)(C)[C@@H]5CC[C@]43C)[C@@H]12` [Example 141, 4-((1R,3aS,5aR,5bR,7aR,11aS,11bR,13aR,13bR)-5a,5b,8,8,11a-pentamethyl-3a-((3-(piperazin-1-yl)propanamido)methyl)-1-(prop-1-en-2-yl)-2,3,3a,4,5,5a,5b,6,7,7a,8,11,11a,11b,12,13,13a,13b-octadecahydro-1H-cyclopenta[a]chrysen-9-yl)benzoic acid], the EC50 is under 100 nM.
